Measured values published in patent US9221809B2 (MERCK SHARP & DOHME CORP., priority 2011, dated 2015).
Counter-ions that a name gives are not always drawn.

biological target: IRAK4 (Homo sapiens (Human), UniProt Q9NWZ3); test: IRAK4 kinase activity, IMAP fluorescence polarization assay; format: biochemical; conditions: 100 μM ATP, 0.5 nM GST tagged IRAK4; read-out: IRAK4 IC50
Procedure: The kinase activity of IRAK4 is determined by its ability to catalyze the phosphorylation of a fluorescent polypeptide substrate. The extent of phosphorylation is measured using IMAP technology (Molecular Devices) where the phosphorylated fluorescent substrate binds to the large M(III)-based nanoparticles which reduces the rotational speed of the substrate and thus increases its fluorescent polarization (FP).
Assay Procedure: A 20 μl reaction mixture contains 10 mM TriHCl, pH 7.2, 0.5 nM GST tagged IRAK4 (SignalChem), 100 nM fluorescent peptide substrate (RP7030, Molecular Devices), 100 μM ATP, 1 mM DTT, 1 mM MgCl2, and 0.01% Tween 20. The reaction is initiated by the addition of ATP. After incubation for 30 minutes at 25° C., 60 μl of Progressive IMAP Reagent (Molecular Devices) is added to stop the reaction. Change in RP7030's FP is determined by a FP reader (Analyst HT, LJL BioSystems)

IRAK4, sequence (Q9NWZ3 whole entry): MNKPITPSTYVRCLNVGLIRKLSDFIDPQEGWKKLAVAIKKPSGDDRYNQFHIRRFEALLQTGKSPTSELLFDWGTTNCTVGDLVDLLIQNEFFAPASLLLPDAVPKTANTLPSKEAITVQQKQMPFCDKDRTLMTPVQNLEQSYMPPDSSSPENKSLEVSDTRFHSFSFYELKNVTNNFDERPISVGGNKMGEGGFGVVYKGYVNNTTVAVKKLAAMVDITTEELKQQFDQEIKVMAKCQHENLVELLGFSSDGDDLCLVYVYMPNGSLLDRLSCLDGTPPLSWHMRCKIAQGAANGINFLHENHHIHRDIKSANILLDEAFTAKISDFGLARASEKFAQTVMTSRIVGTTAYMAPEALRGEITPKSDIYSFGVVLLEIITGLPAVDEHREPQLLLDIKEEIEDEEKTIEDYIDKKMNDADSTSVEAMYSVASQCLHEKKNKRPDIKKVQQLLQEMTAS

Row | SMILES | IC50 [nM]
1 | O=c1[nH]c(NC2CCC2)nc(N[C@@H]2C[C@H](CO)[C@@H](O)[C@H]2O)c1-c1ccc2ccccc2n1 [Example 20, 2-(Cyclobutylamino)-6-((1R,2S,3R,4R)-2,3-dihydroxy-4-(hydroxymethyl)cyclopentylamino)-5-(quinolin-2-yl)pyrimidin-4(3H)-one.HCl] | 19
2 | CS(=O)(=O)N1CCN(c2nc(N[C@@H]3C[C@H](CO)[C@@H](O)[C@H]3O)c(-c3nc4ccccc4s3)c(=O)[nH]2)CC1 [Example 12, 5-(Benzo[d]thiazol-2-yl)-6-((1R,2S,3R,4R)-2,3-dihydroxy-4-(hydroxymethyl)cyclopentylamino)-2-(4-(methylsulfonyl)piperazin-1-yl)pyrimidin-4(3H)-one.HCl] | 25
3 | O=c1[nH]c(C2CCN(c3ccccn3)CC2)nc(N[C@@H]2CCCNC2)c1-c1nc2ccccc2s1 [Example 242, (R)-5-(benzo[d]thiazol-2-yl)-6-(piperidin-3-ylamino)-2-(1-(pyridin-2-yl)piperidin-4-yl)pyrimidin-4(3H)-one] | 180
4 | O=c1[nH]c(NC2CCC2)nc(N[C@@H]2CC[C@@H](O)[C@H]2O)c1-c1nc2ccccc2s1 [Example 48, 5-(Benzo[d]thiazol-2-yl)-2-(cyclobutylamino)-6-((1R,2S,3R)-2,3-dihydroxycyclopentylamino)pyrimidin-4(3H)-one.HCl] | 2260
5 | Cc1cccc(-c2c(N[C@@H]3CCCNC3)nc(N3CCOCC3)[nH]c2=O)n1 [Example 109, (R)-5-(6-methylpyridin-2-yl)-2-morpholino-6-(piperidin-3-ylamino)pyrimidin-4(3H)-one] | 1470
6 | C[C@H]1C[C@@H](Nc2nc(N3CCOCC3)[nH]c(=O)c2-c2nc3ccccc3s2)[C@H](O)[C@@H]1O [Example 47, 5-(Benzo[d]thiazol-2-yl)-6-((1R,2S,3R,4S)-2,3-dihydroxy-4-methylcyclopentylamino)-2-morpholinopyrimidin-4(3H)-one.HCl] | 23
7 | O=c1[nH]c(N2CCCCC2)nc(N[C@@H]2CCCNC2)c1-c1ccc2ccccc2n1 [Example 115, (R)-2-(piperidin-1-yl)-6-(piperidin-3-ylamino)-5-(quinolin-2-yl)pyrimidin-4(3H)-one.HCl] | 54
8 | C[C@@H]1CC[C@@H](Nc2nc(N3CCOCC3)[nH]c(=O)c2-c2ccc3ccccc3n2)CN1 (racemic) [Example 121, 6-(methylpiperidin-3-yl)amino-2-morpholino-5-(quinolin-2-yl)pyrimidin-4(3H)-one.HCl] | 38

same assay, conditions: 100 μM ATP; read-out: IC50

Row | SMILES | IC50 [nM]
9 | O=c1[nH]c(N2CCC(CO)CC2)nc(N[C@@H]2CCCNC2)c1-c1nc2ccccc2s1 [Example 305, 5-(1,3-benzothiazol-2-yl)-2-[4-(hydroxymethyl)piperidin-1-yl]-6-[[(3R)-piperidin-3-yl]amino]-3,4-dihydropyrimidin-4-one] | 62
10 | O=c1[nH]c(N2CC3(COC3)C2)nc(N[C@@H]2CCCNC2)c1-c1nc2ccccc2s1 [Example 317, 5-(1,3-benzothiazol-2-yl)-2-[2-oxa-6-azaspiro[3.3]heptan-6-yl]-6-[[(3R)-piperidin-3-yl]amino]-3,4-dihydropyrimidin-4-one] | 25
11 | O=c1[nH]c(N2CC[C@@H](O)C2)nc(N[C@@H]2CCCNC2)c1-c1nc2ccccc2s1 [Example 315] | 17
12 | O=c1[nH]c(N2CCOCC2)nc(N[C@@H]2CCCNC2)c1-c1csc(-c2ccccc2)n1 [Example 218, (R)-2-morpholino-5-(2-phenylthiazol-4-yl)-6-(piperidin-3-ylamino)pyrimidin-4(3H)-one] | 7
13 | C[C@@H]1C[C@@H](Nc2nc(N3CCOCC3)[nH]c(=O)c2-c2nc3ccccc3s2)CN1 [Example 210, 5-(benzo[d]thiazol-2-yl)-6-(((3R,5R)-5-methylpyrrolidin-3-yl)amino)-2-morpholinopyrimidin-4(3H)-one] | 150
14 | O=c1[nH]c(N2CCC3(CCN(S(=O)(=O)c4ccccc4)C3)C2)nc(N[C@@H]2CCCNC2)c1-c1nc2ccccc2s1 (stereo partly drawn) [Example 328] | 23
15 | O=c1[nH]c(N2CCOCC2)nc(NCCNCCO)c1-c1nc2ccccc2s1 [Example 251, 5-(benzo[d]thiazol-2-yl)-6-(2-(2-hydroxyethyl-amino)ethylamino)-2-morpholino-pyrimidin-4(3H)-one] | 640
16 | N#Cc1ccnc(-c2c(N[C@@H]3CCCNC3)nc(N3CCOCC3)[nH]c2=O)c1 [Example 222, (R)-2-(2-morpholino-6-oxo-4-(piperidin-3-ylamino)-1,6-dihydropyrimidin-5-yl)isonicotinonitrile] | 5620
17 | CN1CCCC(Nc2nc(N3CCOCC3)[nH]c(=O)c2-c2ccc3ccccc3n2)C1 (stereo not drawn) [Example 274, 6-[(1-methylpiperidin-3-yl)amino]-2-(morpholin-4-yl)-5-(quinolin-2-yl)-3,4-dihydropyrimidin-4-one] | 720
18 | O=c1[nH]c(N2CCOCC2)nc(NCCN2CCCC2)c1-c1nc2ccccc2s1 [Example 259, 5-(1,3-benzothiazol-2-yl)-2-(morpholin-4-yl)-6-[[2-(pyrrolidin-1-yl)ethyl]amino]-3,4-dihydropyrimidin-4-one] | 2200
19 | O=c1[nH]c(C2CCN(c3cnccn3)CC2)nc(N[C@@H]2CCCNC2)c1-c1nc2ccccc2s1 [Example 243, (R)-5-(benzo[d]thiazol-2-yl)-6-(piperidin-3-ylamino)-2-(1-(pyrazin-2-yl)piperidin-4-yl)pyrimidin-4(3H)-one] | 180
20 | CC(O)CNc1nc(N2CCOCC2)[nH]c(=O)c1-c1nc2ccccc2s1 (stereo not drawn) [Example 265, 5-(benzo[d]thiazol-2-yl)-6-(2-hydroxypropylamino)-2-morpholino-pyrimidin-4(3H)-one] | 780
21 | O=c1[nH]c(N2CCC(F)(F)CC2)nc(N[C@@H]2CCCNC2)c1-c1nc2ccccc2s1 [Example 312] | 78

same assay, conditions: 100 μM ATP; read-out: IRAK4 IC50

Row | SMILES | IC50 [nM]
22 | O=c1[nH]c(N2CCOC(C(F)(F)F)C2)nc(N[C@@H]2CCCNC2)c1-c1nc2ccccc2s1 (stereo partly drawn) [Example 130, 5-(benzo[d]thiazol-2-yl)-6-((R)-piperidin-3-ylamino)-2-(2-(trifluoromethyl)morpholino)pyrimidin-4(3H)-one] | 201
23 | CO[C@H]1CN(c2nc(N[C@@H]3CCCNC3)c(-c3ccc4ccccc4n3)c(=O)[nH]2)C[C@@H]1O [Example 173, 2-((3S,4S)-3-hydroxy-4-methoxypyrrolidin-1-yl)-6-((R)-piperidin-3-ylamino)-5-(quinolin-2-yl)pyrimidin-4(3H)-one] | 40
24 | O=c1[nH]c(N2CCN(c3ccc(C(F)(F)F)cn3)CC2)nc(N[C@@H]2CCCNC2)c1-c1nc2ccccc2s1 [Example 135, (R)-5-(benzo[d]thiazol-2-yl)-6-(piperidin-3-ylamino)-2-(4-(5-(trifluoromethyl)pyridin-2-yl)piperazin-1-yl)pyrimidin-4(3H)-one] | 11
25 | O=c1[nH]c(N2CCN(c3cccnc3)CC2)nc(N[C@@H]2CCCNC2)c1-c1nc2ccccc2s1 [Example 138, (R)-5-(benzo[d]thiazol-2-yl)-6-(piperidin-3-ylamino)-2-(4-(pyridin-3-yl)piperazin-1-yl)pyrimidin-4(3H)-one] | 6
26 | Cc1nonc1N1CCN(c2nc(N[C@@H]3CCCNC3)c(-c3nc4ccccc4s3)c(=O)[nH]2)CC1 [Example 139, (R)-5-(benzo[d]thiazol-2-yl)-2-(4-(4-methyl-1,2,5-oxadiazol-3-yl)piperazin-1-yl)-6-(piperidin-3-ylamino)pyrimidin-4(3H)-one] | 15
27 | Cn1cc(N2CCN(c3nc(N[C@@H]4CCCNC4)c(-c4nc5ccccc5s4)c(=O)[nH]3)CC2)cn1 [Example 159, (R)-5-(benzo[d]thiazol-2-yl)-2-(4-(1-methyl-1H-pyrazol-4-yl)piperazin-1-yl)-6-(piperidin-3-ylamino)pyrimidin-4(3H)-one] | 20
28 | O=c1[nH]c(N2CCOCC2)nc(N[C@@H]2CCCNC2)c1-c1nc(-c2ccc(Cl)cc2)cs1 [Example 202] | 153
29 | CC1(O)CN(c2nc(N[C@@H]3CCCNC3)c(-c3ccc4ccccc4n3)c(=O)[nH]2)C1 [Example 171, (R)-2-(3-hydroxy-3-methylazetidin-1-yl)-6-(piperidin-3-ylamino)-5-(quinolin-2-yl)pyrimidin-4(3H)-one] | 3150
30 | O=c1[nH]c(N2CCOCC2CO)nc(N[C@@H]2CCCNC2)c1-c1nc2ccccc2s1 (stereo partly drawn) [Example 125, 5-(benzo[d]thiazol-2-yl)-2-(3-(hydroxymethyl)morpholino)-6-((R)-piperidin-3-ylamino)pyrimidin-4(3H)-one] | 864
31 | COC1CCN(c2nc(N[C@@H]3CCCNC3)c(-c3ccc4ccccc4n3)c(=O)[nH]2)C1 (stereo partly drawn) [Example 186, 2-(3-methoxypyrrolidin-1-yl)-6-((R)-piperidin-3-ylamino)-5-(quinolin-2-yl)pyrimidin-4(3H)-one] | 26
32 | O=c1[nH]c(N2CC[C@@H](CO)C2)nc(N[C@@H]2CCCNC2)c1-c1ccc2ccccc2n1 [Example 179, 2-((R)-3-(hydroxymethyl)pyrrolidin-1-yl)-6-((R)-piperidin-3-ylamino)-5-(quinolin-2-yl)pyrimidin-4(3H)-one] | 13

same assay, conditions: unit inferred; 100 μM ATP; read-out: IRAK4 IC50

Row | SMILES | IC50 [nM]
33 | O=c1[nH]c(N2CCc3cnccc3C2)nc(N[C@@H]2C[C@H](CO)[C@@H](O)[C@H]2O)c1-c1nc2ccccc2s1 [Example 74, 5-(benzo[d]thiazol-2-yl)-2-(3,4-dihydro-2,6-naphthyridin-2(1H)-yl)-6-((1R,2S,3R,4R)-2,3-dihydroxy-4-(hydroxymethyl)cyclopentylamino)pyrimidin-4(3H)-one] | 26.4
